Values quoted from earlier work in patent publication US8679533B2, “Pramipexole once-daily dosage form” (Pharmacia Corporation, priority 2002, dated 2014).

Details: dihydrochloride salt, 20-25° C.

solubility in water: about 200 mg/ml
SMILES: CCCN[C@H]1CCc2nc(N)sc2C1 [pramipexole, (S)-2-amino-4,5,6,7-tetrahydro-6-(propylamino)-benzothiazole]
